Patent EP0123700A1, “Substituted picolinic acids, processes for their preparation, their use, and pharmaceutical preparations containing them” (Byk Gulden Lomberg Chemische Fabrik GmbH, priority 1983, dated 1984)
Several values for one entry are separate records, joined by “and”; a condition that tells them apart may be missing. Equal values may be shown once.

Assays:
[1] = tested on: genetisch hypertonen Ratten; experiment: Antihypertensive effect: systolic blood pressure (tail cuff) in conscious genetically hypertensive rats, oral dosing once daily on four consecutive days; format: in vivo, Ratten (Stamm SHR/N/Ibm/Bm); settings: for Th.W. (Therapeutische Wirksamkeit): mean of quotient over the doses of Table I
Procedure: Zur Bestimmung der äntihypertensiven Wirkung werden die unten aufgeführten Verbindungen in den angegebenen Dosen an vier aufeinander folgenden Tagen an je 6 Ratten (Stamm SHR/N/Ibm/Bm, ♂, 250-350 g) mit genetisch bedingtem Hochdruck (RR > 180 mmHg) täglich einmal mittels Schlundsonde verabfolgt. Die Messung des Blutdrucks erfolgt jeweils 2, 6 und gegebenenfalls 24 Stunden nach Substanzgabe.
Die Blutdruckmessung wird in einer Wärmekammer bei 36°C vorgenommen, um eine bessere Durchblutung der Schwanzarterie zu erreichen. Hierzu werden die Tiere in perforierte Lochblechkäfige verbracht und 20 - 40 Min. nach Beginn der Aufwärmung gemessen. Zur Messung des systolischen arteriellen Drucks wird eine ringförmige Manschette mit aufblasbarer Gummimembran zur Unterbindung der Durchblutung und ein ringförmiger Piezökristallaufnehmer zur Erfassung der Pulswellen auf den Schwanz aufgeschoben. Nach erfolgter Unterbindung des Blutstroms in der Schwanzarterie wird der Manschettendruck kontinuierlich reduziert. […] Pulssignale und Druckverlauf werden zur Auswertung graphisch aufgezeichnet.
Zur Gewöhnung an den Meßvorgang werden die Tiere vor Substanzprüfung 14 Tage traniniert. In der zweiten Trainingswoche werden Blutdruck-Vorwerte erhoben. Tiergruppen, die Substanz erhälten, werden gegen eine Kontrollgruppe geprüft.

weiblichen NMRI-Mäusen = experiment: Oral toxicity (LD50) in mice, 14 days observation; format: in vivo; settings: N=5/dose
From the text: (§1) Die Toxizitätsuntersuchungen werden an weiblichen NMRI-Mäusen (Körpergewicht 22 - 26 g) durchgeführt. Die Tiere (5 Tiere pro Dosis) erhalten Futter und Wasser ad libitum. Verschiedene Dosen der Substanzen werden oral verabreicht. Die Beobachtungsdauer beträgt 14 Tage. Die LD50, d.h. die Dosis bei der 50% der Tiere sterben, wird aus der Dosiswirkungskurve graphisch ermittelt.

[2] = Oral toxicity (LD50) in mice, 14 days observation; format: in vivo; settings: mouse, in vivo, N=5/dose
From the text: as §1

[3] = day 1 (2h, 6h and 24h Th.W. averaged), normalised to Th.W. Fusarsäure = 1
[4] = day 2, normalised to Th.W. Fusarsäure = 1
[5] = day 3 (6h and 24h Th.W. averaged), normalised to Th.W. Fusarsäure = 1
[6] = day 4 (2h and 6h Th.W. averaged), normalised to Th.W. Fusarsäure = 1

## CCCCc1ccc(C(=O)OCCCN(C)C)nc1 [lfd. Nr. 3, 5-n-Butylpyridin-2-carbonsäure-(3-dimethylaminopropyl)-ester]
[1]; 20,0 mg/kg p.o., day 1, 2h, listed as 2
  BP (%-Änderungen): -5% and -8%
[1]; 20,0 mg/kg p.o., day 1, 6h, listed as 2
  BP (%-Änderungen): -10% and -13%
[1]; 20,0 mg/kg p.o., day 1, 24h
  BP (%-Änderungen): 0%
[1]; 20,0 mg/kg p.o., day 2, 6h, listed as 2
  BP (%-Änderungen): -6% and -9%
[1]; 20,0 mg/kg p.o., day 3, 6h, listed as 2
  BP (%-Änderungen): -4% and -7%
[1]; 20,0 mg/kg p.o., day 3, 24h
  BP (%-Änderungen): -2%
[1]; 20,0 mg/kg p.o., day 4, 2h, listed as 2
  BP (%-Änderungen): -5% and -8%
[1]; 20,0 mg/kg p.o., day 4, 6h, listed as 2
  BP (%-Änderungen): -7% and -10%
[1]; [3]
  Th.I. Fusarsäure = 1: 4,3
[1]; day 1, 2h
  Th.W. (Therapeutische Wirksamkeit): -5,6 %-Änderung BP / µmol/kg x 100
[1]; day 1, 6h
  Th.W. (Therapeutische Wirksamkeit): -10,3 %-Änderung BP / µmol/kg x 100
[1]; day 1, 24h
  Th.W. (Therapeutische Wirksamkeit): 1,3 %-Änderung BP / µmol/kg x 100
[1]; day 2, 6h
  Th.W. (Therapeutische Wirksamkeit): -6,7 %-Änderung BP / µmol/kg x 100
[1]; [4]
  Th.I. Fusarsäure = 1: 5,2
[1]; [5]
  Th.I. Fusarsäure = 1: 2,5
[1]; day 3, 6h
  Th.W. (Therapeutische Wirksamkeit): -4,5 %-Änderung BP / µmol/kg x 100
[1]; day 3, 24h
  Th.W. (Therapeutische Wirksamkeit): 0,4 %-Änderung BP / µmol/kg x 100
[1]; [6]
  Th.I. Fusarsäure = 1: 1,1
[1]; day 4, 2h
  Th.W. (Therapeutische Wirksamkeit): -5,6 %-Änderung BP / µmol/kg x 100
[1]; day 4, 6h
  Th.W. (Therapeutische Wirksamkeit): -7,6 %-Änderung BP / µmol/kg x 100

## CCN(CC)CCCOC(=O)c1ccc(-c2ccccc2)cn1 [lfd. Nr. 4, 5-Phenylpyridin-2-carbonsäure-(3-diethylaminopropyl)-ester]
[1]; 10,0 mg/kg p.o., day 1, 2h
  BP (%-Änderungen): -4%
[1]; 10,0 mg/kg p.o., day 1, 6h
  BP (%-Änderungen): -10%
[1]; 10,0 mg/kg p.o., day 1, 24h
  BP (%-Änderungen): -6%
[1]; 10,0 mg/kg p.o., day 2, 6h
  BP (%-Änderungen): -10%
[1]; 10,0 mg/kg p.o., day 3, 6h
  BP (%-Änderungen): -13%
[1]; 10,0 mg/kg p.o., day 3, 24h
  BP (%-Änderungen): -12%
[1]; 10,0 mg/kg p.o., day 4, 2h
  BP (%-Änderungen): -13%
[1]; 10,0 mg/kg p.o., day 4, 6h
  BP (%-Änderungen): -12%
[1]; 20,0 mg/kg p.o., day 1, 2h
  BP (%-Änderungen): -3%
[1]; 20,0 mg/kg p.o., day 1, 6h
  BP (%-Änderungen): -2%
[1]; 20,0 mg/kg p.o., day 1, 24h
  BP (%-Änderungen): -6%
[1]; 20,0 mg/kg p.o., day 2, 6h
  BP (%-Änderungen): -8%
[1]; 20,0 mg/kg p.o., day 3, 6h
  BP (%-Änderungen): -14%
[1]; 20,0 mg/kg p.o., day 3, 24h
  BP (%-Änderungen): -5%
[1]; 20,0 mg/kg p.o., day 4, 2h
  BP (%-Änderungen): -6%
[1]; 20,0 mg/kg p.o., day 4, 6h
  BP (%-Änderungen): -9%
[1]; day 1 (2h, 6h and 24h Th.W. averaged), normalised to Th.W. Fusarsäure = 1, listed as 5
  Th.I. Fusarsäure = 1: 16,2
[1]; day 1, 2h
  Th.W. (Therapeutische Wirksamkeit): -11,8 %-Änderung BP / µmol/kg x 100
[1]; day 1, 6h
  Th.W. (Therapeutische Wirksamkeit): -23,7 %-Änderung BP / µmol/kg x 100
[1]; day 1, 24h
  Th.W. (Therapeutische Wirksamkeit): -19,4 %-Änderung BP / µmol/kg x 100
[1]; day 2, 6h
  Th.W. (Therapeutische Wirksamkeit): -30,2 %-Änderung BP / µmol/kg x 100
[1]; day 2, normalised to Th.W. Fusarsäure = 1, listed as 5
  Th.I. Fusarsäure = 1: 23,2
[1]; day 3 (6h and 24h Th.W. averaged), normalised to Th.W. Fusarsäure = 1, listed as 5
  Th.I. Fusarsäure = 1: 22,5
[1]; day 3, 6h
  Th.W. (Therapeutische Wirksamkeit): -43,1 %-Änderung BP / µmol/kg x 100
[1]; day 3, 24h
  Th.W. (Therapeutische Wirksamkeit): -31,2 %-Änderung BP / µmol/kg x 100
[1]; day 4 (2h and 6h Th.W. averaged), normalised to Th.W. Fusarsäure = 1, listed as 5
  Th.I. Fusarsäure = 1: 6,0
[1]; day 4, 2h
  Th.W. (Therapeutische Wirksamkeit): -34,5 %-Änderung BP / µmol/kg x 100
[1]; day 4, 6h
  Th.W. (Therapeutische Wirksamkeit): -35,5 %-Änderung BP / µmol/kg x 100

## CCN(CC)CCCOC(=O)c1ccc(-c2ccccc2)cn1 [Beispiel 4]
[1]; [3]
  Th.I. Fusarsäure = 1: 10,9
[1]; [4]
  Th.I. Fusarsäure = 1: 7,2
[1]; [5]
  Th.I. Fusarsäure = 1: 6,5
[1]; [6]
  Th.I. Fusarsäure = 1: 3,3

## COc1ccccc1N1CCN(CCCNC(=O)c2ccc(-c3ccccc3)cn2)CC1 [lfd. Nr. 5, 5-Phenylpyridin-2-carbonsäure-(3-[4-(2-methoxyphenyl)-piperazinyl-1]-propyl)-amid]
Weiblichen NMRI-Mäusen
  LD50 p.o.: ≫ 1000 mg/kg
[1]; 6,4 mg/kg p.o., day 1, 2h
  BP (%-Änderungen): -19%
[1]; 6,4 mg/kg p.o., day 1, 6h
  BP (%-Änderungen): -14%
[1]; 6,4 mg/kg p.o., day 1, 24h
  BP (%-Änderungen): -20%
[1]; 6,4 mg/kg p.o., day 2, 6h
  BP (%-Änderungen): -12%
[1]; 6,4 mg/kg p.o., day 3, 6h
  BP (%-Änderungen): -11%
[1]; 6,4 mg/kg p.o., day 3, 24h
  BP (%-Änderungen): -5%
[1]; 6,4 mg/kg p.o., day 4, 2h
  BP (%-Änderungen): -16%
[1]; 6,4 mg/kg p.o., day 4, 6h
  BP (%-Änderungen): -24%
[1]; 25,6 mg/kg p.o., day 1, 2h
  BP (%-Änderungen): -26%
[1]; 25,6 mg/kg p.o., day 1, 6h
  BP (%-Änderungen): -20%
[1]; 25,6 mg/kg p.o., day 1, 24h
  BP (%-Änderungen): -14%
[1]; 25,6 mg/kg p.o., day 2, 6h
  BP (%-Änderungen): -12%
[1]; 25,6 mg/kg p.o., day 3, 6h
  BP (%-Änderungen): -12%
[1]; 25,6 mg/kg p.o., day 3, 24h
  BP (%-Änderungen): -3%
[1]; 25,6 mg/kg p.o., day 4, 2h
  BP (%-Änderungen): -12%
[1]; 25,6 mg/kg p.o., day 4, 6h
  BP (%-Änderungen): -22%
[1]; [3]
  Th.I. Fusarsäure = 1: 70,6
[1]; day 1, 2h
  Th.W. (Therapeutische Wirksamkeit): -89,8 %-Änderung BP / µmol/kg x 100
[1]; day 1, 6h
  Th.W. (Therapeutische Wirksamkeit): -66,9 %-Änderung BP / µmol/kg x 100
[1]; day 1, 24h
  Th.W. (Therapeutische Wirksamkeit): -82,7 %-Änderung BP / µmol/kg x 100
[1]; day 2, 6h
  Th.W. (Therapeutische Wirksamkeit): -52,8 %-Änderung BP / µmol/kg x 100
[1]; [5]
  Th.I. Fusarsäure = 1: 21,1
[1]; day 3, 6h
  Th.W. (Therapeutische Wirksamkeit): -49,3 %-Änderung BP / µmol/kg x 100
[1]; day 3, 24h
  Th.W. (Therapeutische Wirksamkeit): -20,3 %-Änderung BP / µmol/kg x 100
[1]; [6]
  Th.I. Fusarsäure = 1: 14,7
[1]; day 4, 2h
  Th.W. (Therapeutische Wirksamkeit): -66,9 %-Änderung BP / µmol/kg x 100
[1]; day 4, 6h
  Th.W. (Therapeutische Wirksamkeit): -103,9 %-Änderung BP / µmol/kg x 100

## CCN(CC)CCCNC(=O)c1ccc(-c2ccc(Cl)cc2)cn1 [Beispiel 9]
[2]
  LD50 at 336 h: > 1000 mg/kg

## CN(C)CCCNC(=O)c1ccc(-c2ccccc2)cn1 [lfd. Nr. 6, 5-Phenylpyridin-2-carbonsäure-(3-dimethylaminopropyl)-amid]
[1]; 6,4 mg/kg p.o., day 1, 2h, listed as 11
  BP (%-Änderungen): +2%
[1]; 6,4 mg/kg p.o., day 1, 6h, listed as 11
  BP (%-Änderungen): -1%
[1]; 6,4 mg/kg p.o., day 1, 24h, listed as 11
  BP (%-Änderungen): +10%
[1]; 6,4 mg/kg p.o., day 2, 6h, listed as 11
  BP (%-Änderungen): -14%
[1]; 6,4 mg/kg p.o., day 3, 6h, listed as 11
  BP (%-Änderungen): -10%
[1]; 6,4 mg/kg p.o., day 3, 24h, listed as 11
  BP (%-Änderungen): +4%
[1]; 6,4 mg/kg p.o., day 4, 6h, listed as 11
  BP (%-Änderungen): -10%
[1]; 25,6 mg/kg p.o., day 1, 2h, listed as 11
  BP (%-Änderungen): -7%
[1]; 25,6 mg/kg p.o., day 1, 6h, listed as 11
  BP (%-Änderungen): -9%
[1]; 25,6 mg/kg p.o., day 1, 24h
  BP (%-Änderungen): +4%
[1]; 25,6 mg/kg p.o., day 2, 6h, listed as 11
  BP (%-Änderungen): +3%
[1]; 25,6 mg/kg p.o., day 3, 6h, listed as 11
  BP (%-Änderungen): -15%
[1]; 25,6 mg/kg p.o., day 3, 24h, listed as 11
  BP (%-Änderungen): -10%
[1]; day 1 (2h, 6h and 24h Th.W. averaged), normalised to Th.W. Fusarsäure = 1, listed as 11
  Th.I. Fusarsäure = 1: -25,7
[1]; day 1, 2h
  Th.W. (Therapeutische Wirksamkeit): 0,9 %-Änderung BP / µmol/kg x 100
[1]; day 1, 6h
  Th.W. (Therapeutische Wirksamkeit): -11,8 %-Änderung BP / µmol/kg x 100
[1]; day 1, 24h
  Th.W. (Therapeutische Wirksamkeit): 39,9 %-Änderung BP / µmol/kg x 100
[1]; day 2, 6h
  Th.W. (Therapeutische Wirksamkeit): -48,0 %-Änderung BP / µmol/kg x 100
[1]; day 2, normalised to Th.W. Fusarsäure = 1, listed as 11
  Th.I. Fusarsäure = 1: 36,9
[1]; day 3 (6h and 24h Th.W. averaged), normalised to Th.W. Fusarsäure = 1, listed as 11
  Th.I. Fusarsäure = 1: 8,0
[1]; day 3, 6h
  Th.W. (Therapeutische Wirksamkeit): -49,9 %-Änderung BP / µmol/kg x 100
[1]; day 3, 24h
  Th.W. (Therapeutische Wirksamkeit): 23,6 %-Änderung BP / µmol/kg x 100
[1]; day 4 (2h and 6h Th.W. averaged), normalised to Th.W. Fusarsäure = 1, listed as 11
  Th.I. Fusarsäure = 1: 5,2
[1]; day 4, 6h
  Th.W. (Therapeutische Wirksamkeit): -36,2 %-Änderung BP / µmol/kg x 100
